From BigSolDB 2.1

Nc1ncccn1
Conditions | solubility (mole fraction)
in 2-butanone, 272.65 K | 0.0201
in 2-butanone, 278.25 K | 0.0249
in 2-butanone, 283.55 K | 0.0317
in 2-butanone, 288.15 K | 0.0361
in 2-butanone, 293.15 K | 0.0418
in 2-butanone, 297.85 K | 0.0512
in 2-butanone, 302.65 K | 0.0621
in 2-butanone, 307.25 K | 0.0721
in 2-butanone, 312.55 K | 0.0865
in 2-butanone, 317.35 K | 0.0988
in 2-butanone, 323.35 K | 0.118
in 2-pentanone, 272.65 K | 0.0158
in 2-pentanone, 278.25 K | 0.0192
in 2-pentanone, 283.55 K | 0.0238
in 2-pentanone, 288.15 K | 0.027
in 2-pentanone, 293.15 K | 0.0309
in 2-pentanone, 297.85 K | 0.0372
in 2-pentanone, 302.65 K | 0.0446
in 2-pentanone, 307.25 K | 0.0513
in 2-pentanone, 312.55 K | 0.0603
in 2-pentanone, 317.35 K | 0.0684
in 2-pentanone, 323.35 K | 0.0808
in acetone, 272.65 K | 0.0222
in acetone, 278.25 K | 0.027
in acetone, 283.55 K | 0.0311
in acetone, 288.15 K | 0.0359
in acetone, 293.15 K | 0.0415
in acetone, 297.85 K | 0.0478
in acetone, 302.65 K | 0.0545
in acetone, 307.25 K | 0.0618
in acetone, 312.55 K | 0.0702
in acetone, 317.35 K | 0.0802
in acetone, 323.35 K | 0.0913
in acetonitrile, 272.65 K | 0.0108
in acetonitrile, 278.25 K | 0.0128
in acetonitrile, 283.55 K | 0.0156
in acetonitrile, 288.15 K | 0.0176
in acetonitrile, 293.15 K | 0.0203
in acetonitrile, 297.85 K | 0.0251
in acetonitrile, 302.65 K | 0.0308
in acetonitrile, 307.25 K | 0.0366
in acetonitrile, 312.55 K | 0.0449
in acetonitrile, 317.35 K | 0.0531
in acetonitrile, 323.35 K | 0.0661
in cyclohexanone, 272.65 K | 0.0371
in cyclohexanone, 278.25 K | 0.0457
in cyclohexanone, 283.55 K | 0.0529
in cyclohexanone, 288.15 K | 0.0618
in cyclohexanone, 293.15 K | 0.072
in cyclohexanone, 297.85 K | 0.0835
in cyclohexanone, 302.65 K | 0.0952
in cyclohexanone, 307.25 K | 0.109
in cyclohexanone, 312.55 K | 0.124
in cyclohexanone, 317.35 K | 0.143
in cyclohexanone, 323.35 K | 0.164
in cyclopentanone, 272.65 K | 0.0605
in cyclopentanone, 278.25 K | 0.0721
in cyclopentanone, 283.55 K | 0.0815
in cyclopentanone, 288.15 K | 0.0918
in cyclopentanone, 293.15 K | 0.103
in cyclopentanone, 297.85 K | 0.116
in cyclopentanone, 302.65 K | 0.128
in cyclopentanone, 307.25 K | 0.14
in cyclopentanone, 312.55 K | 0.154
in cyclopentanone, 317.35 K | 0.169
in cyclopentanone, 323.35 K | 0.185
in ethanol, 272.65 K | 0.00996
in ethanol, 278.25 K | 0.0138
in ethanol, 283.55 K | 0.0184
in ethanol, 288.15 K | 0.0234
in ethanol, 293.15 K | 0.0302
in ethanol, 297.85 K | 0.0384
in ethanol, 302.65 K | 0.0485
in ethanol, 307.25 K | 0.06
in ethanol, 312.55 K | 0.0765
in ethanol, 317.35 K | 0.0945
in ethanol, 323.35 K | 0.123
in ethyl acetate, 272.65 K | 0.0337
in ethyl acetate, 278.25 K | 0.0366
in ethyl acetate, 283.55 K | 0.0407
in ethyl acetate, 288.15 K | 0.0436
in ethyl acetate, 293.15 K | 0.0474
in ethyl acetate, 297.85 K | 0.0536
in ethyl acetate, 302.65 K | 0.0609
in ethyl acetate, 307.25 K | 0.0678
in ethyl acetate, 312.55 K | 0.0779
in ethyl acetate, 317.35 K | 0.0867
in ethyl acetate, 323.35 K | 0.101
in ethyl formate, 272.65 K | 0.0286
in ethyl formate, 278.25 K | 0.0364
in ethyl formate, 283.55 K | 0.0471
in ethyl formate, 288.15 K | 0.0542
in ethyl formate, 293.15 K | 0.0631
in ethyl formate, 297.85 K | 0.0772
in ethyl formate, 302.65 K | 0.0928
in ethyl formate, 307.25 K | 0.106
in ethyl formate, 312.55 K | 0.125
in ethyl formate, 317.35 K | 0.14
in ethyl formate, 323.35 K | 0.163
in isobutanol, 272.65 K | 0.00833
in isobutanol, 278.25 K | 0.0116
in isobutanol, 283.55 K | 0.0155
in isobutanol, 288.15 K | 0.02
in isobutanol, 293.15 K | 0.0259
in isobutanol, 297.85 K | 0.0331
in isobutanol, 302.65 K | 0.0423
in isobutanol, 307.25 K | 0.0528
in isobutanol, 312.55 K | 0.0669
in isobutanol, 317.35 K | 0.0828
in isobutanol, 323.35 K | 0.107
in isopentanol, 272.65 K | 0.0102
in isopentanol, 278.25 K | 0.0136
in isopentanol, 283.55 K | 0.0174
in isopentanol, 288.15 K | 0.0215
in isopentanol, 293.15 K | 0.0264
in isopentanol, 297.85 K | 0.0321
in isopentanol, 302.65 K | 0.0385
in isopentanol, 307.25 K | 0.0458
in isopentanol, 312.55 K | 0.0546
in isopentanol, 317.35 K | 0.0638
in isopentanol, 323.35 K | 0.0769
in isopropanol, 272.65 K | 0.00686
in isopropanol, 278.25 K | 0.00999
in isopropanol, 283.55 K | 0.0139
in isopropanol, 288.15 K | 0.0184
in isopropanol, 293.15 K | 0.025
in isopropanol, 297.85 K | 0.0325
in isopropanol, 302.65 K | 0.0422
in isopropanol, 307.25 K | 0.0539
in isopropanol, 312.55 K | 0.0718
in isopropanol, 317.35 K | 0.0918
in isopropanol, 323.35 K | 0.122
in methanol, 272.65 K | 0.0213
in methanol, 278.25 K | 0.028
in methanol, 283.55 K | 0.0359
in methanol, 288.15 K | 0.0444
in methanol, 293.15 K | 0.0554
in methanol, 297.85 K | 0.0675
in methanol, 302.65 K | 0.0823
in methanol, 307.25 K | 0.0984
in methanol, 312.55 K | 0.121
in methanol, 317.35 K | 0.145
in methanol, 323.35 K | 0.18
in methyl acetate, 272.65 K | 0.0189
in methyl acetate, 278.25 K | 0.0234
in methyl acetate, 283.55 K | 0.0296
in methyl acetate, 288.15 K | 0.0341
in methyl acetate, 293.15 K | 0.0397
in methyl acetate, 297.85 K | 0.0488
in methyl acetate, 302.65 K | 0.0596
in methyl acetate, 307.25 K | 0.0694
in methyl acetate, 312.55 K | 0.0838
in methyl acetate, 317.35 K | 0.0956
in methyl acetate, 323.35 K | 0.115
in n-butanol, 272.65 K | 0.00804
in n-butanol, 278.25 K | 0.0114
in n-butanol, 283.55 K | 0.0157
in n-butanol, 288.15 K | 0.0205
in n-butanol, 293.15 K | 0.027
in n-butanol, 297.85 K | 0.0349
in n-butanol, 302.65 K | 0.0449
in n-butanol, 307.25 K | 0.0569
in n-butanol, 312.55 K | 0.0743
in n-butanol, 317.35 K | 0.0934
in n-butanol, 323.35 K | 0.123
in n-pentanol, 272.65 K | 0.0117
in n-pentanol, 278.25 K | 0.0147
in n-pentanol, 283.55 K | 0.0182
in n-pentanol, 288.15 K | 0.0219
in n-pentanol, 293.15 K | 0.0264
in n-pentanol, 297.85 K | 0.0314
in n-pentanol, 302.65 K | 0.0373
in n-pentanol, 307.25 K | 0.0437
in n-pentanol, 312.55 K | 0.0521
in n-pentanol, 317.35 K | 0.0609
in n-pentanol, 323.35 K | 0.0733
in n-propanol, 272.65 K | 0.0142
in n-propanol, 278.25 K | 0.0187
in n-propanol, 283.55 K | 0.0243
in n-propanol, 288.15 K | 0.03
in n-propanol, 293.15 K | 0.0377
in n-propanol, 297.85 K | 0.0462
in n-propanol, 302.65 K | 0.0567
in n-propanol, 307.25 K | 0.0687
in n-propanol, 312.55 K | 0.0849
in n-propanol, 317.35 K | 0.102
in n-propanol, 323.35 K | 0.127
